Biological target: recombinant CD73 (Homo sapiens (Human), UniProt P21589)
Test: Inhibition of the CD73 enzyme in vitro (soluble recombinant CD73, AMP, Malachite Green)
Format: biochemical
Settings: recombinant CD73 0.5 nM, AMP 50 μM
Experimental: The concentration of inorganic phosphate was determined using a phosphate standard curve.

Sequence of recombinant CD73 (P21589 27-547): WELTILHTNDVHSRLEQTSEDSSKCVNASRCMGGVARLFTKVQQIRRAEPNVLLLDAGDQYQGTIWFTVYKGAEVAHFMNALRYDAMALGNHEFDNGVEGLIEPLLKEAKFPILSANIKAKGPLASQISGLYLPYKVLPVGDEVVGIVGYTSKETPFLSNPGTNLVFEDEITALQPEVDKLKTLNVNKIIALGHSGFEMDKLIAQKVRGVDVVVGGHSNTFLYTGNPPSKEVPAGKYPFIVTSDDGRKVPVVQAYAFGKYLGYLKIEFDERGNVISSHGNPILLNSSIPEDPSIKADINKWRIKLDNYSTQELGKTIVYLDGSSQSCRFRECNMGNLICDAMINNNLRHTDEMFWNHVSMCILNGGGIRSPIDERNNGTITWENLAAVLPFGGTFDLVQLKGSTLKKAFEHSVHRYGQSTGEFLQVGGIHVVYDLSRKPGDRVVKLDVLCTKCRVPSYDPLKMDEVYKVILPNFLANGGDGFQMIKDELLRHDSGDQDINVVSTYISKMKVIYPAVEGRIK

| SMILES | IC50 (class symbols (Table 4)) | IC50 (30 minutes at room temperature) |
| --- | --- | --- |
| CCOC(=O)C(Cc1ccccc1)(OC[C@H]1O[C@@H](n2cnc3c(NCc4ccccc4)nc(Cl)nc32)[C@H](O)[C@@H]1O)C(=O)OCC | < 1000 nM | – |
| CCOC(=O)C(Cc1ccc(OC(F)(F)F)cc1)(OC[C@H]1O[C@@H](n2cnc3c(N)nc(Cl)nc32)[C@@H](F)[C@@H]1O)C(=O)O (single isomer, unassigned) [compound 38] | – | 686 nM |
| Nc1nc(Cl)nc2c1ncn2[C@@H]1O[C@H](COC(Cc2cccc(Oc3ccccc3)c2)(C(=O)O)C(=O)O)[C@@H](O)[C@@H]1F [compound 13, 2-(((2R,3R,4S,5R)-5-(6-amino-2-chloro-9H-purin-9-yl)-4-fluoro-3-hydroxytetrahydrofuran-2-yl)methoxy)-2-(3-phenoxybenzyl)malonic acid] | – | 403 nM |
| Nc1nc(Cl)nc2c1ncn2[C@@H]1O[C@H](COC(Cc2cccc(C(F)(F)F)c2)(C(=O)O)C(=O)O)[C@@H](O)[C@@H]1F [compound 16, 2-(((2R,3R,4S,5R)-5-(6-amino-2-chloro-9H-purin-9-yl)-4-fluoro-3-hydroxytetrahydrofuran-2-yl)methoxy)-2-(3-(trifluoromethyl)benzyl)malonic acid] | – | 257 nM |
| Nc1nc(Cl)nc2c1ncn2[C@@H]1O[C@H](COC(Cc2ccc3ccccc3c2)(C(=O)O)C(=O)O)[C@@H](O)[C@@H]1F [compound 17, 2-(((2R,3R,4S,5R)-5-(6-amino-2-chloro-9H-purin-9-yl)-4-fluoro-3-hydroxytetrahydrofuran-2-yl)methoxy)-2-(naphthalen-2-ylmethyl)malonic acid] | – | 699 nM |
| O=C(O)C(Cc1ccccc1)(OC[C@H]1O[C@@H](n2cnc3c(NCc4ccccc4)nc(Cl)nc32)[C@@H](F)[C@@H]1O)C(=O)O [compound 28, 2-benzyl-2-(((2R,3R,4S,5R)-5-(6-(benzylamino)-2-chloro-9H-purin-9-yl)-4-fluoro-3-hydroxytetrahydrofuran-2-yl)methoxy)malonic acid] | – | 2650 nM |
| Nc1nc(Cl)nc2c1ncn2[C@@H]1O[C@H](COC(Cc2nnn[nH]2)(C(=O)O)C(=O)O)[C@@H](O)[C@@H]1F [compound 50, 2-((1H-tetrazol-5-yl)methyl)-2-(((2R,3R,4S,5R)-5-(6-amino-2-chloro-9H-purin-9-yl)-4-fluoro-3-hydroxytetrahydrofuran-2-yl)methoxy)malonic acid] | – | 1910 nM |
| Nc1nc(Cl)nc2c1ncn2[C@@H]1O[C@H](COC(Cc2ccccc2)(C(=O)O)C(=O)O)[C@@H](N)[C@H]1O [compound 51, 2-(((2S,3S,4R,5R)-3-amino-5-(6-amino-2-chloro-9H-purin-9-yl)-4-hydroxytetrahydrofuran-2-yl)methoxy)-2-benzylmalonic acid] | – | 1870 nM |
| Nc1nc(Cl)nc2c1ncn2[C@@H]1O[C@H](COC(Cc2cccc(-c3nnn[nH]3)c2)(C(=O)O)C(=O)O)[C@@H](O)[C@@H]1F [compound 53, 2-(3-(1H-tetrazol-5-yl)benzyl)-2-(((2R,3R,4S,5R)-5-(6-amino-2-chloro-9H-purin-9-yl)-4-fluoro-3-hydroxytetrahydrofuran-2-yl)methoxy)malonic acid] | – | 448 nM |
| Nc1nc(Cl)nc2c1ncn2[C@@H]1O[C@H](COC(Cc2ccc(-c3nnn[nH]3)cc2)(C(=O)O)C(=O)O)[C@@H](O)[C@@H]1F [compound 54, 2-(4-(1H-tetrazol-5-yl)benzyl)-2-(((2R,3R,4S,5R)-5-(6-amino-2-chloro-9H-purin-9-yl)-4-fluoro-3-hydroxytetrahydro-furan-2-yl)methoxy)malonic acid] | – | 220 nM |
| Nc1nc(Cl)nc2c1ncn2[C@@H]1O[C@H](COC(Cc2ccc(C(F)(F)F)o2)(C(=O)O)C(=O)O)[C@@H](O)[C@@H]1F [compound 59, 2-(((2R,3R,4S,5R)-5-(6-amino-2-chloro-9H-purin-9-yl)-4-fluoro-3-hydroxytetrahydro-furan-2-yl)methoxy)-2-((5-(trifluoromethyl)-furan-2-yl)methyl)malonic acid] | – | 439 nM |
| Nc1nc(Cl)nc2c1ncn2[C@@H]1O[C@H](COC(Cc2cc(-c3ccccc3)no2)(C(=O)O)C(=O)O)[C@@H](O)[C@@H]1F [compound 61, 2-(((2R,3R,4S,5R)-5-(6-amino-2-chloro-9H-purin-9-yl)-4-fluoro-3-hydroxytetrahydrofuran-2-yl)methoxy)-2-((3-phenylisoxazol-5-yl)methyl)malonic acid] | – | 2250 nM |
| Nc1nc(Cl)nc2c1ncn2[C@@H]1O[C@H](COC(Cc2cnn(Cc3ccccc3)c2)(C(=O)O)C(=O)O)[C@@H](O)[C@@H]1F [compound 63, 2-(((2R,3R,4S,5R)-5-(6-amino-2-chloro-9H-purin-9-yl)-4-fluoro-3-hydroxytetrahydro-furan-2-yl)methoxy)-2-((1-benzyl-1H-pyrazol-4-yl)methyl)malonic acid] | – | 1220 nM |
| Nc1nc(Cl)nc2c1ncn2[C@@H]1O[C@H](COC(Cc2cn[nH]c2)(C(=O)O)C(=O)O)[C@@H](O)[C@@H]1F [compound 64, 2-((1H-pyrazol-4-yl)methyl)-2-(((2R,3R,4S,5R)-5-(6-amino-2-chloro-9H-purin-9-yl)-4-fluoro-3-hydroxytetrahydrofuran-2-yl)methoxy)malonic acid] | – | 860 nM |
| Nc1nc(Cl)nc2c1ncn2[C@@H]1O[C@H](COC(Cc2csc(C(=O)O)n2)(C(=O)O)C(=O)O)[C@@H](O)[C@@H]1F [compound 68, 2-(((2R,3R,4S,5R)-5-(6-amino-2-chloro-9H-purin-9-yl)-4-fluoro-3-hydroxytetrahydro-furan-2-yl)methoxy)-2-((2-carboxythiazol-4-yl)methyl)malonic acid] | – | 322 nM |
| Nc1nc(Cl)nc2c1ncn2[C@@H]1O[C@H](COC(Cc2ccc(C(=O)O)s2)(C(=O)O)C(=O)O)[C@@H](O)[C@@H]1F [compound 77, 2-(((2R,3R,4S,5R)-5-(6-amino-2-chloro-9H-purin-9-yl)-4-fluoro-3-hydroxytetrahydro-furan-2-yl)methoxy)-2-((5-carboxythiophen-2-yl)methyl)malonic acid] | – | 255 nM |
| Nc1nc(Cl)nc2c1ncn2[C@@H]1O[C@H](COC(Cc2cc(C(=O)O)no2)(C(=O)O)C(=O)O)[C@@H](O)[C@@H]1F [compound 83, 2-(((2R,3R,4S,5R)-5-(6-amino-2-chloro-9H-purin-9-yl)-4-fluoro-3-hydroxytetrahydrofuran-2-yl)methoxy)-2-((3-carboxyisoxazol-5-yl)methyl)malonic acid] | – | 6440 nM |

More lines, in order of falling IC50 (30 minutes at room temperature), values ahead:

| IC50 (class symbols (Table 4)) | IC50 (30 minutes at room temperature) | SMILES |
| --- | --- | --- |
| – | 193 nM | CS(=O)(=O)c1ccc(CC(OC[C@H]2O[C@@H](n3cnc4c(N)nc(Cl)nc43)[C@@H](F)[C@@H]2O)(C(=O)O)C(=O)O)cc1 [compound 21, 2-(((2R,3R,4S,5R)-5-(6-amino-2-chloro-9H-purin-9-yl)-4-fluoro-3-hydroxytetrahydrofuran-2-yl)methoxy)-2-(4-(methylsulfonyl)benzyl) malonic acid] |
| – | 168 nM | Nc1nc(Cl)nc2c1ncn2[C@@H]1O[C@H](COC(Cc2cccc(O)c2)(C(=O)O)C(=O)O)[C@@H](O)[C@@H]1F [compound 56, 2-(((2R,3R,4S,5R)-5-(6-amino-2-chloro-9H-purin-9-yl)-4-fluoro-3-hydroxytetrahydrofuran-2-yl)methoxy)-2-(3-hydroxybenzyl)malonic acid] |
| – | 142 nM | Nc1nc(Cl)nc2c1ncn2[C@@H]1O[C@H](COC(Cc2ccc(C(=O)O)cc2F)(C(=O)O)C(=O)O)[C@@H](O)[C@@H]1F [compound 57, 2-(((2R,3R,4S,5R)-5-(6-amino-2-chloro-9H-purin-9-yl)-4-fluoro-3-hydroxytetrahydrofuran-2-yl)methoxy)-2-(4-carboxy-2-fluorobenzyl)malonic acid] |
| – | 133 nM | Nc1nc(Cl)nc2c1ncn2[C@@H]1O[C@H](COC(Cc2ccc(O)cc2)(C(=O)O)C(=O)O)[C@@H](O)[C@@H]1F [compound 66, 2-(((2R,3R,4S,5R)-5-(6-amino-2-chloro-9H-purin-9-yl)-4-fluoro-3-hydroxytetrahydrofuran-2-yl)methoxy)-2-(4-hydroxybenzyl) malonic acid] |
| – | 86 nM | Nc1nc(Cl)nc2c1ncn2[C@@H]1O[C@H](COC(Cc2ccc(CC(=O)O)cc2)(C(=O)O)C(=O)O)[C@@H](O)[C@@H]1F [compound 78, 2-(((2R,3R,4S,5R)-5-(6-amino-2-chloro-9H-purin-9-yl)-4-fluoro-3-hydroxytetrahydrofuran-2-yl)methoxy)-2-(4-(carboxymethyl)benzyl) malonic acid] |
| – | 74 nM | Nc1nc(Cl)nc2c1ncn2[C@@H]1O[C@H](COC(Cc2csc(C(=O)O)c2)(C(=O)O)C(=O)O)[C@@H](O)[C@@H]1F [compound 76, 2-(((2R,3R,4S,5R)-5-(6-amino-2-chloro-9H-purin-9-yl)-4-fluoro-3-hydroxytetrahydro-furan-2-yl)methoxy)-2-((5-carboxythiophen-3-yl)methyl)malonic acid] |
| – | 51 nM | Nc1nc(Cl)nc2c1ncn2[C@@H]1O[C@H](COC(Cc2ccc(C(F)(F)F)c(F)c2)(C(=O)O)C(=O)O)[C@@H](O)[C@@H]1F [compound 60, 2-(((2R,3R,4S,5R)-5-(6-amino-2-chloro-9H-purin-9-yl)-4-fluoro-3-hydroxytetrahydro-furan-2-yl)methoxy)-2-(3-fluoro-4-(trifluoromethyl)benzyl) malonic acid] |
| – | 44 nM | Nc1nc(Cl)nc2c1ncn2[C@@H]1O[C@H](COC(Cc2ccc(Cl)cc2F)(C(=O)O)C(=O)O)[C@@H](O)[C@@H]1F [compound 80, 2-(((2R,3R,4S,5R)-5-(6-amino-2-chloro-9H-purin-9-yl)-4-fluoro-3-hydroxytetrahydrofuran-2-yl)methoxy)-2-(4-chloro-2-fluorobenzyl)malonic acid] |
| – | 38 nM | Nc1nc(Cl)nc2c1ncn2[C@@H]1O[C@H](COC(Cc2ccc(C(=O)O)c(F)c2)(C(=O)O)C(=O)O)[C@@H](O)[C@@H]1F [compound 58, 2-(((2R,3R,4S,5R)-5-(6-amino-2-chloro-9H-purin-9-yl)-4-fluoro-3-hydroxytetrahydro-furan-2-yl)methoxy)-2-(4-carboxy-3-fluorobenzyl)malonic acid] |
| – | 31 nM | Nc1nc(Cl)nc2c1ncn2[C@@H]1O[C@H](COC(Cc2ccc(OCc3ccccc3)cc2)(C(=O)O)C(=O)O)[C@@H](O)[C@@H]1F [compound 65, 2-(((2R,3R,4S,5R)-5-(6-amino-2-chloro-9H-purin-9-yl)-4-fluoro-3-hydroxytetrahydrofuran-2-yl)methoxy)-2-(4-(benzyloxy)benzyl)malonic acid] |

Source: patent US11034715B2, “Ectonucleotidase inhibitors and methods of use thereof” (Calithera Biosciences, Inc., priority 2016, dated 2021)
